Assay results reported in ChEMBL document CHEMBL4033665, “Synthesis and applications of benzohydroxamic acid-based histone deacetylase inhibitors” (Eur J Med Chem, 2017).
pIC50: −log10 of the molar value. Values belong to the compound of their own block, whether it stands above or below them.

How the values were obtained:
Histone deacetylase 8 [1] = biological target: T1, Histone deacetylase 8 (Homo sapiens, UniProt Q9BY41); test: Inhibition of human HDAC8 using ZMTFAL as substrate after 90 mins by fluorescence assay
T1 sequence (Q9BY41 whole entry): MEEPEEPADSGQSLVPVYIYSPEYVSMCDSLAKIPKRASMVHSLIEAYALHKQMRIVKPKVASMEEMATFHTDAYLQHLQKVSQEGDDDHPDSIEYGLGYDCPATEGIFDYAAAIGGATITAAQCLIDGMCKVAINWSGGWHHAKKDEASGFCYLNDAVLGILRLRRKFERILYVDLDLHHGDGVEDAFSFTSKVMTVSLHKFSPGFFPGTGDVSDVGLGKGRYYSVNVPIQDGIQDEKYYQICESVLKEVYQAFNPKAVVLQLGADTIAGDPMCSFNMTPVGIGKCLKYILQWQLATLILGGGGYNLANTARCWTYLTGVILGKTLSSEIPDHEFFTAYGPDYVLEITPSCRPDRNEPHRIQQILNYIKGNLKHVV

Histone deacetylase 1 [2] = biological target: T2, Histone deacetylase 1 (Homo sapiens, UniProt Q13547); test: Inhibition of human HDAC1 using MAL as substrate at 100 uM after 90 mins by fluorescence assay
[3] = biological target: T3, Protein deacetylase HDAC6 (Homo sapiens) (UniProt Q9UBN7); test: Inhibition of human HDAC6 at 100 uM after 90 mins by fluorescence assay
T3 sequence (whole entry): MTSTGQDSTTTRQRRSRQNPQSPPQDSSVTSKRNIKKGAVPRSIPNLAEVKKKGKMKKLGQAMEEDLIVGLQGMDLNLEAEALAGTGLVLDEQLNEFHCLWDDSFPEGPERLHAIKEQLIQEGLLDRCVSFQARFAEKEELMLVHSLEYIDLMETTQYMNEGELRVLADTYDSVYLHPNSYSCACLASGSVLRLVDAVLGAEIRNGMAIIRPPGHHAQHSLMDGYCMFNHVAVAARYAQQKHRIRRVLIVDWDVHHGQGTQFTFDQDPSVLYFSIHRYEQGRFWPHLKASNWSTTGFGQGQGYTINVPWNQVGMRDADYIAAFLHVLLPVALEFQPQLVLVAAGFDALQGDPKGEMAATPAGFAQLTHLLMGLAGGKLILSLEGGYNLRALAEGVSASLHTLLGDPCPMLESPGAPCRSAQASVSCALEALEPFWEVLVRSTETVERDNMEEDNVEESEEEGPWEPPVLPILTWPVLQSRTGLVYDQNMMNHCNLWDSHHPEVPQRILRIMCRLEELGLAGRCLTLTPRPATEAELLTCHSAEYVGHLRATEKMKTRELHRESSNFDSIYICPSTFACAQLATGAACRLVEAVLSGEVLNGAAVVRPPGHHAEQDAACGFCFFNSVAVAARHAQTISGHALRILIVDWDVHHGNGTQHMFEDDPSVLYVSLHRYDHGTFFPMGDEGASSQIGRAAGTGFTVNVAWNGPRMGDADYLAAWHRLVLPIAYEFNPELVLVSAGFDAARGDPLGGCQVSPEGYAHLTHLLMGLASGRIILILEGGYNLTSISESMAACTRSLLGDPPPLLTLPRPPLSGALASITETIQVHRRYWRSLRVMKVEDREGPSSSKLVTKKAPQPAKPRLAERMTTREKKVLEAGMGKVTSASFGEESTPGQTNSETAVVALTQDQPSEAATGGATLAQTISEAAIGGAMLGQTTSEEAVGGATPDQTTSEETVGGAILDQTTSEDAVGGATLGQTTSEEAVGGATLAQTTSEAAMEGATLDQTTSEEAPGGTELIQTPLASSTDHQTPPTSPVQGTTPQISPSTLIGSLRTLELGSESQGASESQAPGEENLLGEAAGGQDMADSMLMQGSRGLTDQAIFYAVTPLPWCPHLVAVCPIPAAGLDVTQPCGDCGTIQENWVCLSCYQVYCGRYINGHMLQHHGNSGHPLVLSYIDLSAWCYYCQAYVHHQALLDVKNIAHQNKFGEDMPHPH

[4] = biological target: T4, Protein deacetylase HDAC6 (Homo sapiens, UniProt Q9UBN7); test: Inhibition of N-terminal GST-tagged full length human HDAC6 expressed in baculovirus expression system in Sf9 cells using AMC-labeled RHKKAc as substrate after 2 hrs by fluorescence assay
T4 sequence (Q9UBN7 whole entry): T3 sequence (whole entry)

Histone deacetylase 3 [5] = biological target: T5, Histone deacetylase 3 (Homo sapiens, UniProt O15379); test: Inhibition of C-terminal His-tagged full length human HDAC3 expressed in baculovirus expression system using AMC-labeled RHKKAc as substrate after 2 hrs by fluorescence assay
Histone deacetylase 1 [6] = biological target: T2, Histone deacetylase 1; test: Inhibition of C-terminal GST-tagged full length human HDAC1 expressed in baculovirus expression system in Sf9 cells using AMC-labeled RHKKAc as substrate after 2 hrs by fluorescence assay
[7] = Inhibition of maize HD1A; parameters: species or system Zea mays
[8] = Inhibition of maize HD2; parameters: species or system Zea mays
Histone deacetylase HD1B = Histone deacetylase HD1B (Zea mays, UniProt Q9ZTP8); test: Inhibition of maize HD1B
Histone deacetylase 7 = biological target: T6, Histone deacetylase 7 (Homo sapiens, UniProt Q8WUI4); test: Inhibition of HDAC7 (unknown origin)
T6 sequence (Q8WUI4 whole entry): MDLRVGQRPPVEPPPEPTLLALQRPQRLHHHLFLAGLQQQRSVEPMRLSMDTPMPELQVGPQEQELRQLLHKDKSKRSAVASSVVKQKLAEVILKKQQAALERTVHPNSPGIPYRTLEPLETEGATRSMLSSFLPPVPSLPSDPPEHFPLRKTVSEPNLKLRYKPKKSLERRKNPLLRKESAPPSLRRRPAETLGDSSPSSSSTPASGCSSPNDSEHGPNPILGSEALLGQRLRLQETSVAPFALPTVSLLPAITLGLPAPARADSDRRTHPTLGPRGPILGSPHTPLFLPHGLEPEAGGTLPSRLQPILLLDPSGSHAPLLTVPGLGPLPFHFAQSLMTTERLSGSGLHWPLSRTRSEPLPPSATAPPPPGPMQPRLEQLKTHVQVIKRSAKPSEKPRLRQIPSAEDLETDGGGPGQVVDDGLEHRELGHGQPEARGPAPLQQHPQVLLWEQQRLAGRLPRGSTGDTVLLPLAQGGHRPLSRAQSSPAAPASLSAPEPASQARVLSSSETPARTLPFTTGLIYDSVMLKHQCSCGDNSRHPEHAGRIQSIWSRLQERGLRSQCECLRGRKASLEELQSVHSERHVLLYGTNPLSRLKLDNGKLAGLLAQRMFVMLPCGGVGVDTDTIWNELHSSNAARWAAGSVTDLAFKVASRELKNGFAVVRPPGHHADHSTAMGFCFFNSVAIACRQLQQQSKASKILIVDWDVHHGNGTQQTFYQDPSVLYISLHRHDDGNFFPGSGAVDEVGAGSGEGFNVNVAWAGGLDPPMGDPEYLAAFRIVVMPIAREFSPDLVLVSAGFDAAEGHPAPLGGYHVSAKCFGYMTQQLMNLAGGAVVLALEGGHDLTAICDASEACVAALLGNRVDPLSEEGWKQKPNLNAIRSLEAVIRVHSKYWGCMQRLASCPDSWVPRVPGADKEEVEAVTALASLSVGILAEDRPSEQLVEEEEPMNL

Histone deacetylase 1 [9] = biological target: T2, Histone deacetylase 1; test: Inhibition of HDAC1 (unknown origin)
Histone deacetylase 3 [10] = biological target: T5, Histone deacetylase 3; test: Inhibition of HDAC3 (unknown origin)
Histone deacetylase 2 [11] = biological target: T7, Histone deacetylase 2 (Homo sapiens, UniProt Q92769); test: Inhibition of HDAC2 (unknown origin)
[12] = biological target: T8, Polyamine deacetylase HDAC10 (Homo sapiens, UniProt Q969S8); test: Inhibition of HDAC10 (unknown origin)
T8 sequence (Q969S8 whole entry): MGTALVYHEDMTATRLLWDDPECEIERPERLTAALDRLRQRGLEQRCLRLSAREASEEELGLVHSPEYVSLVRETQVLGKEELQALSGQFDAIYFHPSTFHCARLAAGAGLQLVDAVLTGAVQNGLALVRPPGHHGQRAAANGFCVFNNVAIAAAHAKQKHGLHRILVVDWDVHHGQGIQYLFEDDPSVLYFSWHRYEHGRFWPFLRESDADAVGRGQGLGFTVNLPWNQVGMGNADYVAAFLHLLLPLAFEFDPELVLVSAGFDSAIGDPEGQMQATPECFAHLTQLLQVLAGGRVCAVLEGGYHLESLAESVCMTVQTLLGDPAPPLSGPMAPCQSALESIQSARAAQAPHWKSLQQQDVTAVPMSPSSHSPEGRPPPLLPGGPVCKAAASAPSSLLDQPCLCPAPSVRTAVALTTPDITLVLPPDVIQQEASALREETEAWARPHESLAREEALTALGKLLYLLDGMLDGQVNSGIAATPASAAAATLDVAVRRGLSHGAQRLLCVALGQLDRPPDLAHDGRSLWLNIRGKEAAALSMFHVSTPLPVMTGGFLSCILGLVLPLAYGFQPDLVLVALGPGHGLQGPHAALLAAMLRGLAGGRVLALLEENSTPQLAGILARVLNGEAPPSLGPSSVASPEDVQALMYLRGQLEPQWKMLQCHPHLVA

[13] = biological target: T4, Protein deacetylase HDAC6; test: Inhibition of HDAC6 (unknown origin)
Histone deacetylase 11 = biological target: T9, Histone deacetylase 11 (Homo sapiens, UniProt Q96DB2); test: Inhibition of HDAC11 (unknown origin)
T9 sequence (Q96DB2 whole entry): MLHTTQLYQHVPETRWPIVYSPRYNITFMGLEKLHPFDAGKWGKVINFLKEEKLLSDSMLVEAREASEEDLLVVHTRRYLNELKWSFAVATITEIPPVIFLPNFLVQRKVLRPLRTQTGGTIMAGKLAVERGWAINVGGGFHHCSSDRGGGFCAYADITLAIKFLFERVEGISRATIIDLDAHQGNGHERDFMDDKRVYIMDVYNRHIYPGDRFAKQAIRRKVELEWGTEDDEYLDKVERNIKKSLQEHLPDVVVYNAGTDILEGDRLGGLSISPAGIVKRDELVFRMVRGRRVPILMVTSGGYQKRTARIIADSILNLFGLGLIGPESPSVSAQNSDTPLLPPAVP

Histone deacetylase 8 [14] = biological target: T1, Histone deacetylase 8; test: Inhibition of HDAC8 (unknown origin)
Histone deacetylase 4 [15] = biological target: T10, Histone deacetylase 4 (Homo sapiens, UniProt P56524); test: Inhibition of HDAC4 (unknown origin)
Histone deacetylase 5 = Histone deacetylase 5 (Homo sapiens, UniProt Q9UQL6); test: Inhibition of HDAC5 (unknown origin)
Histone deacetylase 9 = Histone deacetylase 9 (Homo sapiens, UniProt Q9UKV0); test: Inhibition of HDAC9 (unknown origin)
Histone deacetylase 1 [16] = biological target: T2, Histone deacetylase 1; test: Inhibition of C-terminal His-tag and C-terminal FLAG-tagged full length human HDAC1 expressed in baculovirus expression system using AMC-labeled RHKKAc as substrate by fluorescence method
[17] = biological target: T4, Protein deacetylase HDAC6; test: Inhibition of recombinant N-terminal GST-tagged full length human HDAC6 expressed in baculovirus expression system in Sf9 insect cells using AMC-labeled RHKKAc as substrate by fluorescence method
Histone deacetylase 2 [18] = biological target: T7, Histone deacetylase 2; test: Inhibition of HDAC2 (unknown origin) by fluorescence assay
Histone deacetylase 3 [19] = biological target: T5, Histone deacetylase 3; test: Inhibition of HDAC3 (unknown origin) by fluorescence assay
Histone deacetylase 8 [20] = biological target: T1, Histone deacetylase 8; test: Inhibition of HDAC8 (unknown origin) by fluorescence assay
Histone deacetylase 1 [21] = biological target: T2, Histone deacetylase 1; test: Inhibition of HDAC1 (unknown origin) by fluorescence assay
[22] = biological target: T4, Protein deacetylase HDAC6; test: Inhibition of HDAC6 (unknown origin) by fluorescence assay
Histone deacetylase 4 [23] = biological target: T10, Histone deacetylase 4; test: Inhibition of HDAC4 (unknown origin) by fluorescence assay
[24] = Inhibition of HDAC activity in human HeLa nuclear extract

T5 sequence (O15379 whole entry): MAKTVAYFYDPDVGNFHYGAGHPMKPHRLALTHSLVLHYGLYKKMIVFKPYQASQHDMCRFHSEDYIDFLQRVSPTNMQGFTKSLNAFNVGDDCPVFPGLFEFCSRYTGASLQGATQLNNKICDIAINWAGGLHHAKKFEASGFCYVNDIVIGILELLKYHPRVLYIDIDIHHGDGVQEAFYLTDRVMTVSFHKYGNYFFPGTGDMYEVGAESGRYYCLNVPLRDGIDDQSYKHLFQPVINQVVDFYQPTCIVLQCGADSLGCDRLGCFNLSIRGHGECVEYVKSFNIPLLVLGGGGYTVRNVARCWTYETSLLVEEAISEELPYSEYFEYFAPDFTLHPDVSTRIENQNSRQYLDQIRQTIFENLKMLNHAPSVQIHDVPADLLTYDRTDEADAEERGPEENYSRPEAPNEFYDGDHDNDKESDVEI
T2 sequence (Q13547 whole entry): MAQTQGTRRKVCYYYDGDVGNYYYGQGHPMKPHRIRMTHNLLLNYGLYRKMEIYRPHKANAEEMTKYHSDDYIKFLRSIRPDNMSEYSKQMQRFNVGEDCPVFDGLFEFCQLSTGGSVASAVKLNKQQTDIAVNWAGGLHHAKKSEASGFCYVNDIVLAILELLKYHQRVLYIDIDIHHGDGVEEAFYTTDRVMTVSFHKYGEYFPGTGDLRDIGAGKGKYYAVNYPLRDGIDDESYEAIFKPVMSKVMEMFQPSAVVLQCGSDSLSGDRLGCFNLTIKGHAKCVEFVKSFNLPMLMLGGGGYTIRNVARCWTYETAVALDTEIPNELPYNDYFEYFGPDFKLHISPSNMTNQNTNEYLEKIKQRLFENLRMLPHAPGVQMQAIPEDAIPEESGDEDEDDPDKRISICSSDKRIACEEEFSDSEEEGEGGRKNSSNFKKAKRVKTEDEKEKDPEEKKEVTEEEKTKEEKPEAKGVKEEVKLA
T10 sequence (P56524 whole entry): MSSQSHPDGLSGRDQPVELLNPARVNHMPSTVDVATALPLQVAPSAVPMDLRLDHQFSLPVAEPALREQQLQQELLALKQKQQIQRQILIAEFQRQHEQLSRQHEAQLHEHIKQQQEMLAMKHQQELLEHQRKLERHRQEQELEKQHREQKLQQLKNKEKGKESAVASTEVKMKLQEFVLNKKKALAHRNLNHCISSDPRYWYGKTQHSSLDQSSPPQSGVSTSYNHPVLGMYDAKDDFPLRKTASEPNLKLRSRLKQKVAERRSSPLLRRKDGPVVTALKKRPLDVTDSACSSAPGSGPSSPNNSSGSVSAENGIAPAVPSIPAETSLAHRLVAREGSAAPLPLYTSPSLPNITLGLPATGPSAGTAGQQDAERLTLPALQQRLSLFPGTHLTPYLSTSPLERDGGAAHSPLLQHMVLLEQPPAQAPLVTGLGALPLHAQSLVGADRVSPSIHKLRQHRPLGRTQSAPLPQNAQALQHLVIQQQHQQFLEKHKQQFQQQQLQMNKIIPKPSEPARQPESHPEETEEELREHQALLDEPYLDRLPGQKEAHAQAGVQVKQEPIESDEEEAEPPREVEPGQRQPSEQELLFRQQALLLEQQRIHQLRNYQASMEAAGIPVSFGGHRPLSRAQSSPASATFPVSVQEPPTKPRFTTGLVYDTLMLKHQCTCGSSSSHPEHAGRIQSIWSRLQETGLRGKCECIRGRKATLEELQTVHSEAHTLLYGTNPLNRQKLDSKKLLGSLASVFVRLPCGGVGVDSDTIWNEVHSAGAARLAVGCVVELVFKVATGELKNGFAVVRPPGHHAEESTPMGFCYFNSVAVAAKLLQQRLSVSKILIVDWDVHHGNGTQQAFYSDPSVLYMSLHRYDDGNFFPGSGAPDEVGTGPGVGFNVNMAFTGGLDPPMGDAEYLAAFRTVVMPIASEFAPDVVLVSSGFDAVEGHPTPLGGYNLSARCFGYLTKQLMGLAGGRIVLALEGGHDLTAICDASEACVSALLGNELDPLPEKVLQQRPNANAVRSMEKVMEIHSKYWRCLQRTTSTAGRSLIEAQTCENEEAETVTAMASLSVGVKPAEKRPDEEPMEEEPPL
T7 sequence (Q92769 whole entry): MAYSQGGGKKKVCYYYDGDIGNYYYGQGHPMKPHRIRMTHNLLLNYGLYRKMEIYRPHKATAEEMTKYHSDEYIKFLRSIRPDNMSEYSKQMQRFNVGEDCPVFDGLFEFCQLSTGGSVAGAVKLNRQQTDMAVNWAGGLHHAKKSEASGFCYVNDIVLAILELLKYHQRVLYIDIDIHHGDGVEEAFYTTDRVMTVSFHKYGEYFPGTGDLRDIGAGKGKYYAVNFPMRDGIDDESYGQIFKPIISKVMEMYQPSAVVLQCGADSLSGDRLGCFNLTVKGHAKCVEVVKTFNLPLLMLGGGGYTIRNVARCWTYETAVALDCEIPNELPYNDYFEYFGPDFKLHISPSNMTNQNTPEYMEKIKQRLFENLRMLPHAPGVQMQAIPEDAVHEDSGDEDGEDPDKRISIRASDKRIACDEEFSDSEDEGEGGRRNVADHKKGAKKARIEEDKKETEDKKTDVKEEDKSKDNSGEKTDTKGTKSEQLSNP
Chain of Histone deacetylase 9 (Q9UKV0 whole entry): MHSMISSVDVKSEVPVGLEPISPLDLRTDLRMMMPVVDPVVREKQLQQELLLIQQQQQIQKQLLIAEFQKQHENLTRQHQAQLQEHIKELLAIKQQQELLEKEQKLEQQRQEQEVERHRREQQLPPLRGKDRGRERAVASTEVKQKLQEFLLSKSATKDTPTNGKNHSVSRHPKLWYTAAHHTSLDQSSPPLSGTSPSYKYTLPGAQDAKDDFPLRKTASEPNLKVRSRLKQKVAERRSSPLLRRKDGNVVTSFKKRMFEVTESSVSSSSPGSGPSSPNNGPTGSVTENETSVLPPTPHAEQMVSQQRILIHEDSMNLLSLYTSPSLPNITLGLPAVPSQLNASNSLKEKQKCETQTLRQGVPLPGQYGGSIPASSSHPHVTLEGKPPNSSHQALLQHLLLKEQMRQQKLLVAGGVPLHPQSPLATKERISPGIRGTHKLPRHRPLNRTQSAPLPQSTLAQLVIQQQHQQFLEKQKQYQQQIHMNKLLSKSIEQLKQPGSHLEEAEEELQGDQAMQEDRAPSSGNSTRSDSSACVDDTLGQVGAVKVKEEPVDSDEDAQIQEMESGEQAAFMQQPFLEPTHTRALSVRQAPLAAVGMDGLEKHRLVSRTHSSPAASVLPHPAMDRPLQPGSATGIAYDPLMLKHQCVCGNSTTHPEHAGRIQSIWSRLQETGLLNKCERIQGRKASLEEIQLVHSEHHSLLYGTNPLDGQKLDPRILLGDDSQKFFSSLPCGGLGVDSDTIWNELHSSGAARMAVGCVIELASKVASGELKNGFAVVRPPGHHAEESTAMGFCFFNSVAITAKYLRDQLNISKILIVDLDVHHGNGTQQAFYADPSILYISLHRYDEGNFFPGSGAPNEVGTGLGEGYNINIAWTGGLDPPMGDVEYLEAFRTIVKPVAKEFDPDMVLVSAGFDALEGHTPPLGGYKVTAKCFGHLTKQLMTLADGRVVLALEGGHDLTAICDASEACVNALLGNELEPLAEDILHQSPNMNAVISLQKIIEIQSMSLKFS
Chain of Histone deacetylase HD1B (Q9ZTP8 whole entry): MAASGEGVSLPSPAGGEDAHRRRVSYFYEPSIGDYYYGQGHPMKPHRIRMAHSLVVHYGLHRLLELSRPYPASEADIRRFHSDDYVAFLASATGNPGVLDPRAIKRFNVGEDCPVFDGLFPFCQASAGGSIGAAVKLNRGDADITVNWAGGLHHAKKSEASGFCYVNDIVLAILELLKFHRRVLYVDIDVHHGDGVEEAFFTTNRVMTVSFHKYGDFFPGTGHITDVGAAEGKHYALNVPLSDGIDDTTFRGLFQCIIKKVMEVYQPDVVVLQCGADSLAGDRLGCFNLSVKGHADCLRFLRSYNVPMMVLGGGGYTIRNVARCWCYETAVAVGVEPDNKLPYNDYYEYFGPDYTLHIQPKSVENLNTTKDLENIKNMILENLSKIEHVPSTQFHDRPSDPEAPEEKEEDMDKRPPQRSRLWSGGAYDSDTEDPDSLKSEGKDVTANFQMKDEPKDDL
Chain of Histone deacetylase 5 (Q9UQL6 whole entry): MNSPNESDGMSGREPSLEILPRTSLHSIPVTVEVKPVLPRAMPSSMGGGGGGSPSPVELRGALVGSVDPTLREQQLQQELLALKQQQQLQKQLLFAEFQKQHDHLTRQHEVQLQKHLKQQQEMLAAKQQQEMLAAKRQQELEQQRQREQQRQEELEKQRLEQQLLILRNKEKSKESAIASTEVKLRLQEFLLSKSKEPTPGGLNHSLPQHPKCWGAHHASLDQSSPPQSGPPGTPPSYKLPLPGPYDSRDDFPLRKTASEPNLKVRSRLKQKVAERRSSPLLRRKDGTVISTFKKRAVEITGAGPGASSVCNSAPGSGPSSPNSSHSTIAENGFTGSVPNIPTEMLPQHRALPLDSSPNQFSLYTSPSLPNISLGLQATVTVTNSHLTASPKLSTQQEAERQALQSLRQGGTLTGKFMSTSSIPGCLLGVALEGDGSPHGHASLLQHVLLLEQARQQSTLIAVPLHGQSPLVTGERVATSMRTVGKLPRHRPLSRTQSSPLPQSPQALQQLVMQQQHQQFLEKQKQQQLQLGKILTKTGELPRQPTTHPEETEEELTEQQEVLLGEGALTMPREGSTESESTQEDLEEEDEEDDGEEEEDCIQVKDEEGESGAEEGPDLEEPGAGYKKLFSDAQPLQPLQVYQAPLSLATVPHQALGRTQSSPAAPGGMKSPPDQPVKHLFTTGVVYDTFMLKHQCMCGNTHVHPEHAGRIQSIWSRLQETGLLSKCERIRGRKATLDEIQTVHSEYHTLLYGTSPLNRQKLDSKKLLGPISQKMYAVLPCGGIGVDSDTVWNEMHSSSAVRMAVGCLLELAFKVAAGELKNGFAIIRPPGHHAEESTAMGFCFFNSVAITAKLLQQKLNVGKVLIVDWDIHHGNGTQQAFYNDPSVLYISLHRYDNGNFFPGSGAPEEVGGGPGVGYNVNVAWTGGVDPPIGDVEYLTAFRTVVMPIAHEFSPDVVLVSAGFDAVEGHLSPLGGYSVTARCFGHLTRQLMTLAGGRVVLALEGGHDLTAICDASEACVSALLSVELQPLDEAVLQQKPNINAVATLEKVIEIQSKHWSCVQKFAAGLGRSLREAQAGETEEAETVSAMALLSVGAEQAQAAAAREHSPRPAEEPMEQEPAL

Compound: CCN(CC)Cc1ccc2cc(COC(=O)Nc3ccc(C(=O)NO)cc3)ccc2c1 [GIVINOSTAT]
pIC50 [7]: 7.80 to 8.12 | pIC50 [8]: 7.80 to 8.12 | pIC50 (Histone deacetylase HD1B): 7.80 to 8.12

Compound: O=C(NO)c1ccc(NCc2csc3ccc(Br)cc23)cc1
pIC50 (Histone deacetylase 7): < 5.00 | pIC50 (Histone deacetylase 1 [9]): < 5.00 | pIC50 (Histone deacetylase 3 [10]): < 5.00

Compound: O=C(NO)c1ccc(CN2c3ccccc3S(=O)(=O)C[C@H]3CCCC[C@H]32)cc1
pIC50 (Histone deacetylase 1 [9]): 5.09 | pIC50 (Histone deacetylase 2 [11]): 4.62 | pIC50 (Histone deacetylase 3 [10]): 4.62 | pIC50 [12]: 5.00 | pIC50 [13]: 8.10 | pIC50 (Histone deacetylase 11): 5.62 | pIC50 (Histone deacetylase 8 [14]): 5.96 | pIC50 (Histone deacetylase 4 [15]): < 4.52 | pIC50 (Histone deacetylase 5): 5.04 | pIC50 (Histone deacetylase 9): 4.89

More lines, now with the values ahead:

pIC50 (Histone deacetylase 8 [1]): 4.80 | inhibition (Histone deacetylase 1 [2]): < 10% | inhibition [3]: 41%
Compound: O=C1Nc2ccccc2/C1=N/NC(=S)Nc1ccc(C(=O)NO)cc1

pIC50 [4]: 8.70 | pIC50 (Histone deacetylase 3 [5]): 7.10 | pIC50 (Histone deacetylase 1 [6]): 7.15
Compound: COc1ccc(-c2cc(-c3ccoc3)c(C(=O)NCc3ccc(C(=O)NO)cc3)[nH]2)cc1

pIC50 (Histone deacetylase 1 [16]): ≤ 5.00 | pIC50 [17]: ≥ 6.30
Compound: Cc1noc(C)c1-c1ccnc(N(Cc2ccc(C(=O)NO)cc2)c2cnccn2)c1

pIC50 (Histone deacetylase 2 [18]): < 4.00 | pIC50 (Histone deacetylase 3 [19]): 4.92 | pIC50 (Histone deacetylase 8 [20]): 6.82 | pIC50 (Histone deacetylase 1 [21]): < 4.00 | pIC50 [22]: 4.85 | pIC50 (Histone deacetylase 4 [23]): < 4.00 | pIC50 [24]: < 4.00
Compound: O=C(NO)c1cccc(-c2csc(CSc3ccccc3)n2)c1
